Test results reported in patent US9995734B2, “Human T cell line assay for evaluating the immunologic identity of glatiramer acetate preparations” (Mylan Inc., priority 2013, dated 2018).
Values joined by “and” are separate entries in the source; they are usually repeats but may differ in a detail not shown here. Equal values may be shown once.

How the values were obtained:
[1] = system: Donor 1 COP T-Cell Lines; assay: ATP proliferation assay (CellTiter Glo), Donor 1 COP T-cell lines, incl. reactivity to non-canonical GA peptides; format: cell-based, human; details: for luminescent ATP proliferation assay, mean / Non-Canonical Peptide Non-Reactivity: 222-2F12; for luminescent ATP proliferation assay, mean: no antigen 5673 (Table 9); for Non-Canonical Peptide Non-Reactivity: proliferation <2 times no antigen control; for Nonreactive T-Cell Line: stimulation with the non-canonical GA peptide
Procedure: Proliferation was evaluated by measuring ATP content using a luminescent method (CellTiter Glo Luminescent Cell Viability Assay, Promega, Madison, Wis., cat. #G7571) or by measuring BrdU uptake by ELISA (Millipore cat. #2752), in both cases following kit instructions. A split well format was used. Cells in each well were resuspended and 65 μl transferred to the wells of each of two new U-bottom 96-well plates, to generate the replicate plates. For the initial screening, the original 96-well plate received mitomycin-treated autologous PBMC as APC plus 10 μg/mL antigen (GA). A first replicate plate received 100 μl., mitomycin-treated PBMC alone (2×10^5), and no antigen, and a second replicate plate received 100 μL mitomycin-treated PBMC plus GA at a final concentration of 10 μg/mL. Therefore, all three plates received autologous APC (PBMC) treated with mitomycin C to prevent cell division. […] The latter two plates were incubated for 3 days at 37° C., 6% CO2 before adding CellTiter Glo or BrdU and measuring signal. IL-2 was added at 10 U/mL to the original 96-well plate for expansion on Day 17. For subsequent screenings, mitomycin-treated EBV-transformed autologous B-LCL (2×10^5 to 5×10^5 cells/mL) were used as APC.
COP-responsive T-cell lines were obtained from Donor 1. In the initial stimulation, isolated PBMC were plated at 1×10^5 cells per well (5×10^5 cells/mL) with 10 μg/mL Copaxone and cultured as described above. IL-2 was added to all wells on Days 4 and 7 of culture, and the wells screened for reactivity on Day 14 using a luminescent proliferation assay in split well format. The original plate was restimulated, and IL-2 added 4 days after restimulation.
(§1) T-cell line 222-2D8, generated from Donor 1 by initial stimulation with COP, was shown in at least two experiments to proliferate comparably following restimulation with GMA and COP. […] ATP levels were measured at 48 hours after stimulation. The control in the GMA series was no antigen, and the control in the COP series was MBP. The response to GMA in comparison to COP at the 10 μg/mL dose in this assay was 103.4%.
In a second ATP proliferation assay, carried out on Day 56 or culturing following stimulation with 1, 3, or 10 μg/mL of GMA or COP, the response to GMA in comparison to COP at the 10 μg/mL dose was 107.1%.
as §1, with “line 222-2F1,” for “line 222-2D8,”, “Donor 222” for “Donor 1”, “was 85.1%.” for “was 103.4%.”
On Day 56 of culturing, after six total rounds of stimulation, cell line 222-2F12 was assayed for proliferation in response to stimulation with GA and a series of non-canonical peptides. For the assay, 0, 3, 10, or 30 μg/mL of each of peptides GL 14, GLT 631, GAT 111, and GAT 631, COP, and GMA, were added to the T-cell lines at 1×10^5 cells/mL, in the presence of mitomycin C-treated autologous B-LCL. Proliferation was measured by luminescent ATP assay. Cell line 222-2F12 responded to GL 14 at 3 μg/mL, and not to the other non-canonical GA peptides tested. The response to GMA in comparison to COP at the 10 μg/mL dose in this assay was 99.4%.
The cultures were restimulated on days 46, 56, 67 and 75. On Day 56, cell lines 222-2D8, 222-1H12, 222-2F12, 222-2B8, 222-105, 222-2B11, and 222-2E1 again were tested for reactivity to stimulation with 1, 3, or 10 μg/mL of GMA or COP in a proliferation assay. ATP levels were measured in all seven cell lines at 48 hours (results in FIGS. 5A-G) after stimulation. The control in the GMA series was no antigen, and the control in the COP series was MBP. […]

[2] = system: Donor 4 COP T-Cell Lines; assay: ATP proliferation assay (CellTiter Glo), Donor 4 COP T-cell lines, incl. reactivity to non-canonical GA peptides; format: cell-based, human; details: for Non-Canonical Peptide Non-Reactivity: proliferation <2 times no antigen control; for reactivity to non-canonical GA peptides: after seven stimulations, 0, 1, 10, 30 μg/mL; for Nonreactive T-Cell Line: stimulation with the non-canonical GA peptide; for Proliferation (luminescent ATP assay), Mean: T-cell line 205-1F4, Day 71, autologous B-LCL
[3] = T-cell line 205-1B4, 1 μg/mL antigen, No Antigen 830
[4] = T-cell line 205-1B4, 3 μg/mL antigen, No Antigen 830
[5] = T-cell line 205-1B4, 10 μg/mL antigen, No Antigen 830
[6] = T-cell line 205-1B4, 30 μg/mL antigen, No Antigen 830
[7] = T-cell line 205-1C4, 1 μg/mL antigen, No Antigen 4464
[8] = T-cell line 205-1C4, 3 μg/mL antigen, No Antigen 4464
[9] = T-cell line 205-1C4, 10 μg/mL antigen, No Antigen 4464
[10] = T-cell line 205-1C4, 30 μg/mL antigen, No Antigen 4464
[11] = T-cell line 205-1H5, 1 μg/mL antigen, No Antigen 749
[12] = T-cell line 205-1H5, 3 μg/mL antigen, No Antigen 749
[13] = T-cell line 205-1H5, 10 μg/mL antigen, No Antigen 749
[14] = T-cell line 205-1H5, 30 μg/mL antigen, No Antigen 749

Row | Substance | luminescent ATP proliferation assay, mean ([1]; Day 56, 3 μg/mL) | luminescent ATP proliferation assay, mean ([1]; Day 56, 10 μg/mL) | luminescent ATP proliferation assay, mean ([1]; Day 56, 30 μg/mL) | Non-Canonical Peptide Non-Reactivity [1] | Nonreactive T-Cell Line ([1]; Donor 1 COP lines) | Non-Canonical Peptide Non-Reactivity ([2]; 205-1B4) | Non-Canonical Peptide Non-Reactivity ([2]; 205-1C4) | Non-Canonical Peptide Non-Reactivity ([2]; 205-1F4) | Non-Canonical Peptide Non-Reactivity ([2]; 205-1H3) | Non-Canonical Peptide Non-Reactivity ([2]; 205-1H5) | reactivity to non-canonical GA peptides ([2]; 205-1H7) | Non-Canonical Peptide Non-Reactivity ([2]; 205-1H11) | Nonreactive T-Cell Line ([2]; Donor 4 COP lines) | Reactivity (proliferation), Mean [2, 3] | Reactivity (proliferation), Mean [2, 4] | Reactivity (proliferation), Mean [2, 5] | Reactivity (proliferation), Mean [2, 6] | Reactivity (proliferation), Mean [2, 7] | Reactivity (proliferation), Mean [2, 8] | Reactivity (proliferation), Mean [2, 9] | further results
1 | poly (Glu-Ala-Tyr; 6:3:1) [GAT 631] | 4342 | 3226 | 3071 | GAT 631 | 222-2F12 (Donor 1) and 222-1H12 (Donor 1) | GAT 631 | GAT 631 | GAT 631 | GAT 631 | GAT 631 | not | GAT 631 | 205-1C4 (Donor 4) and 205-1F4 (Donor 4) and 205-1H3 (Donor 4) and 205-1H5 (Donor 4) and 205-1H7 (Donor 4) and 205-1H11 (Donor 4) | 843 RLU | 890 RLU | 845 RLU | 766 RLU | 4856 RLU | 5584 RLU | 5666 RLU | Non-Canonical Peptide Non-Reactivity ([2]; 205-1H7): GAT 631; Reactivity (proliferation), Mean [2, 10]: 5137 RLU; Proliferation (luminescent ATP assay), Mean ([2]; 1 μg/mL antigen): 2424; Proliferation (luminescent ATP assay), Mean ([2]; 3 μg/mL antigen): 2439; Proliferation (luminescent ATP assay), Mean ([2]; 10 μg/mL antigen): 3035; Reactivity (proliferation), Mean [2, 11]: 648 RLU; Reactivity (proliferation), Mean [2, 12]: 696 RLU; Reactivity (proliferation), Mean [2, 13]: 698 RLU; Reactivity (proliferation), Mean [2, 14]: 669 RLU
2 | poly (Glu-Lys-Tyr; 6:3:1) [GLT 631] | 5277 | 4934 | 5217 | GLT 631 | 222-2F12 (Donor 1) | GLT 631 | GLT 631 | GLT 631 | GLT 631 | GLT 631 | reactivity | GLT 631 | 205-1B4 (Donor 4) and 205-1C4 (Donor 4) and 205-1F4 (Donor 4) and 205-1H3 (Donor 4) and 205-1H5 (Donor 4) and 205-1H11 (Donor 4) | 912 RLU | 1059 RLU | 1387 RLU | 1389 RLU | 4559 RLU | 4934 RLU | 5616 RLU | proliferation response to non-canonical GA peptides ([1]; 222-1H12, Day 56, 0, 3, 10, 30 μg/mL): responded; Reactive T-Cell Line ([1]; Donor 1 COP lines, at least a 50% increase in proliferation relative to a control after stimulation with the non-canonical GA peptide): 222-1H12 (Donor 1); Non-Canonical Peptide Reactivity ([2]; 205-1H7, at least one proliferation value >=2 times no antigen control): GLT 631; Reactive T-Cell Line ([2]; Donor 4 COP lines, at least a 50% increase in proliferation relative to a control after stimulation with the non-canonical GA peptide): 205-1H7 (Donor 4); Reactivity (proliferation), Mean [2, 10]: 5782 RLU; Proliferation (luminescent ATP assay), Mean ([2]; 1 μg/mL antigen): 1938; Proliferation (luminescent ATP assay), Mean ([2]; 3 μg/mL antigen): 1863; Proliferation (luminescent ATP assay), Mean ([2]; 10 μg/mL antigen): 2504; Reactivity (proliferation), Mean [2, 11]: 710 RLU; Reactivity (proliferation), Mean [2, 12]: 885 RLU; Reactivity (proliferation), Mean [2, 13]: 1153 RLU; Reactivity (proliferation), Mean [2, 14]: 1294 RLU
